Activity calls are given as the source filed them. The rule behind the calls is not given here.

Among the data in ChEMBL document CHEMBL2176875, “Ago-allosteric modulators of human glucagon-like peptide 2 receptor” (Bioorg Med Chem Lett, 2012) are %max, Activity and EC50 values, retold here.

In the first assay the target is T1, Glucagon-like peptide 2 receptor (Homo sapiens) (UniProt O95838).
T1 sequence (whole entry): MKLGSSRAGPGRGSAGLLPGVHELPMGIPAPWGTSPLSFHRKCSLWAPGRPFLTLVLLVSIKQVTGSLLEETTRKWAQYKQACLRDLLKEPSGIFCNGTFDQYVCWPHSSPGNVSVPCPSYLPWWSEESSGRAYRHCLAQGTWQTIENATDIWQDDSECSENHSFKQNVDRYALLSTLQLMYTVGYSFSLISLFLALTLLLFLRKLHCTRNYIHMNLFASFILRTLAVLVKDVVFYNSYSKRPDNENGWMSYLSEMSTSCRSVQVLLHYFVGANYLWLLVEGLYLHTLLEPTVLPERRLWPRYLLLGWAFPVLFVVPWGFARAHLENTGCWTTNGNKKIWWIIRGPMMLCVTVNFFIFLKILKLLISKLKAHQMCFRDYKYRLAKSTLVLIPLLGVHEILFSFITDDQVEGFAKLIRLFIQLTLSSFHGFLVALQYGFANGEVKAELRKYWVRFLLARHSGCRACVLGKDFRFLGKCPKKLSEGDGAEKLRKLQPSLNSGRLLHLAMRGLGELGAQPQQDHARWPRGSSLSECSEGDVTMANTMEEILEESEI
Kind of assay: Positive ago-allosteric modulation of GLP2R overexpressed in human SE302 cells assessed as placental alkaline phosphatase activation at 6.3 uM measured on day 3 by Alamar Blue assay relative to 100 pM GLP2. It counts as cell-based.
Turning to `O/N=C(\CSc1ccccc1C(F)(F)F)c1cc(C(F)(F)F)nn1C1CCCC1`, the %max stood at 83%.
On the same count and under the same terms, to `COc1c(Br)cc(/C(CSc2ccccc2C(F)(F)F)=N/O)cc1C(C)(C)C` belongs 97%.

For another assay, the target named is T1, Glucagon-like peptide 2 receptor (Homo sapiens). Kind of assay: Positive ago-allosteric modulation of GLP2R overexpressed in human SE302 cells assessed as placental alkaline phosphatase activation measured on day 3 by Alamar Blue assay relative to GLP2. The format is cell-based. For orientation: Resazurin is reduced to fluorescent resorufin, in cell work by metabolically active cells.
“H-DGSFSDEMNTILDNLAARDFINWLIQTKITD-OH [listing 1 of 2 here]”: the %max was found to be 59%.

The target is the same in a further assay. The assay is described as follows: Positive ago-allosteric modulation of GLP2R overexpressed in human SE302 cells assessed as placental alkaline phosphatase activation at 25 uM measured on day 3 by Alamar Blue assay relative to 100 pM GLP2. The format is cell-based.
On to `O/N=C(\CSc1cccs1)c1cc(Cl)sc1Cl`, for which the %max worked out at 40%.
Same read-out and setting: to `O/N=C(\CSc1cccc(F)c1)c1cc(Cl)sc1Cl` belongs 73%; to `O/N=C(\CSc1cccc(Cl)c1)c1cc(Cl)sc1Cl`, 53%; to `O/N=C(\CSc1ccccc1)c1cc(C(F)(F)F)nn1C1CCCC1`, 127%.
The same measure, in the same setting: to `COc1cccc(/C(CSc2ccccc2)=N/O)c1` belongs 8%; to `CCCOc1cccc(/C(CSc2ccccc2)=N/O)c1`, 9%.
With `O/N=C(\CSc1ccncc1C(F)(F)F)c1cc(Cl)sc1Cl`, the %max came out at 143%.
`Cn1nc(-c2ccccc2)cc1/C(CSc1ccccc1)=N/O`: the %max is 14%.
Still for that read-out and setting: to `COc1cccc(SC/C(=N\O)c2cc(Cl)sc2Cl)c1C` belongs 31%; to `Cn1nc(C(F)(F)F)cc1/C(CSc1ccccc1)=N/O`, 13%; to `Cc1cccc(SC/C(=N\O)c2cc(Cl)sc2Cl)c1C`, 54%.
Consider `Cc1cccc(C)c1SC/C(=N\O)c1cc(Cl)sc1Cl`, for which the %max came out at 10%.
On the same count and under the same terms, to `Cc1cccc(SC/C(=N\O)c2cc(Cl)sc2Cl)c1` belongs 30%; to `O/N=C(\CSc1ccccc1F)c1cc(Cl)sc1Cl`, 80%; to `O/N=C(\CSc1ccccc1Cl)c1cc(Cl)sc1Cl`, 60%.
The same measure, in the same setting: to `COC(=O)c1ccccc1SC/C(=N\O)c1cc(Cl)sc1Cl` belongs 39%; to `O/N=C(\CSc1ccc(C(F)(F)F)cc1)c1cc(Cl)sc1Cl`, 16%.
Regarding `O/N=C(\CSc1ccccc1)c1cc(C(F)(F)F)cc(C(F)(F)F)c1`, the %max was 29%.
For the molecule `Cc1cc(F)ccc1SC/C(=N\O)c1cc(Cl)sc1Cl`, the %max came to 124%.
On the same count and under the same terms, to `CC(C)(C)c1cc(/C(CSc2ccccc2)=N/O)cc(C(C)(C)C)c1` belongs 31%; to `O/N=C(\CSc1cccc2ccccc12)c1cc(Cl)sc1Cl`, 23%; to `CCCn1nc(C(F)(F)F)cc1/C(CSc1ccccc1)=N/O`, 71%.
The same measure, in the same setting: to `Cc1ccccc1SC/C(=N\O)c1cc(Cl)sc1Cl` belongs 90%; to `CCc1cnccc1SC/C(=N\O)c1cc(Cl)sc1Cl`, 59%.
Still for that read-out and setting: to `CC(C)(C)c1cccc(/C(CSc2ccccc2)=N/O)c1` belongs 18%; to `O/N=C(\CSc1ccccc1)c1cc(C(F)(F)F)nn1C1CCC1`, 99%; to `CCc1ccccc1SC/C(=N\O)c1cc(Cl)sc1Cl`, 63%.
With `O/N=C(\CSc1ccc(F)cc1)c1cc(Cl)sc1Cl`, the %max came to 134%.
The same measure, in the same setting: to `CC(C)Oc1cccc(/C(CSc2ccccc2)=N/O)c1` belongs 14%; to `O/N=C(\CSc1ccc(Cl)cc1)c1cc(Cl)sc1Cl`, 17%; to `CC(C)n1nc(C(F)(F)F)cc1/C(CSc1ccccc1)=N/O`, 87%.
The same measure, in the same setting: to `CC(C)(C)OC(=O)c1cc(/C(CSc2ccccc2)=N/O)cc(C(C)(C)C)c1O` belongs 4%.

Another assay has the same target. The assay is described as follows: Positive ago-allosteric modulation of GLP2R overexpressed in human SE302 cells assessed as increase in GLP2 (11 to 33)-induced placental alkaline phosphatase activation at 10 uM measured on day 3 by Alamar Blue assay relative to GLP2. The format is cell-based.
Take `CC(C)(C)c1cc(/C(CSc2ccccc2)=N/O)cc(C(C)(C)C)c1`: the result was Active.

The target is the same in the next assay. The assay is described as follows: Positive ago-allosteric modulation of GLP2R overexpressed in human SE302 cells assessed as placental alkaline phosphatase activation at 50 uM measured on day 3 by Alamar Blue assay relative to 100 pM GLP2. It counts as cell-based.
With `Cc1cnccc1SC/C(=N\O)c1cc(Cl)sc1Cl`, the %max stood at 44%.
On the same count and under the same terms, to `Cc1ccc(SC/C(=N\O)c2cc(Cl)sc2Cl)cc1` belongs 3%; to `O/N=C(\CSc1cccnc1)c1cc(Cl)sc1Cl`, 27%.

For another assay the target is unchanged. Kind of assay: Positive ago-allosteric modulation of GLP2R overexpressed in human SE302 cells assessed as placental alkaline phosphatase activation at 6.3 uM measured on day 3 by Alamar Blue assay relative to 10 pM GLP2. It counts as cell-based.
Regarding `O/N=C(\CSc1ccccc1C(F)(F)F)c1cc(C(F)(F)F)nn1C1CCCC1`, the %max was determined as 610%.
Same read-out and setting: to `COc1c(Br)cc(/C(CSc2ccccc2C(F)(F)F)=N/O)cc1C(C)(C)C` belongs 714%.

For a further assay the target is unchanged. The assay is described as follows: (§1) Positive ago-allosteric modulation of GLP2R overexpressed in human SE302 cells assessed as placental alkaline phosphatase activation measured on day 3 by Alamar Blue assay. It counts as cell-based.
Regarding `O=C(O)c1ccccc1SC/C(=N\O)c1cc(Cl)sc1Cl`, the outcome was inactive.
`Cn1nc(C(C)(C)C)cc1/C(CSc1ccccc1)=N/O`: the outcome was inactive.
Same read-out and setting: to `O/N=C(\CSc1ccccc1)c1cccc(O)c1` belongs “inactive”.
As for `CCSC/C(=N\O)c1cc(Cl)sc1Cl`, the outcome was inactive.
The same measure, in the same setting: to `COc1cccc(SC/C(=N\O)c2cc(Cl)sc2Cl)c1` belongs “inactive”; to `O/N=C(\CSCc1ccccc1)c1cc(Cl)sc1Cl`, “inactive”; to `COc1c(C(=O)O)cc(/C(CSc2ccccc2)=N/O)cc1C(C)(C)C`, “inactive”.
With `O/N=C(\CSCCCc1ccccc1)c1cc(Cl)sc1Cl`, the result was inactive.
Still for that read-out and setting: to `O/N=C(\CSC1CCCCC1)c1cc(Cl)sc1Cl` belongs “inactive”; to `CC(C)(C)SC/C(=N\O)c1cc(Cl)sc1Cl`, “inactive”; to `O/N=C(\CSc1ccccn1)c1cc(Cl)sc1Cl`, “inactive”.
On the same count and under the same terms, to `Cn1nc(C(F)(F)F)cc1/C(CSc1ccccc1)=N/O` belongs “inactive”.
For the molecule `Cn1nc(C2CC2)cc1/C(CSc1ccccc1)=N/O`, the outcome was inactive.
Still for that read-out and setting: to `COc1ccccc1SC/C(=N\O)c1cc(Cl)sc1Cl` belongs “inactive”; to `Cc1cc(/C(CSc2ccccc2)=N/O)n(C)n1`, “inactive”.

Another assay concerns the target T2, Glucagon-like peptide 2 receptor (Homo sapiens, UniProt O95838).
T2 sequence (O95838 whole entry): T1 sequence (whole entry)
The assay is described as §1. The format is cell-based.
Usually EC50 stands for the concentration giving half of the maximal effect. Take “H-DGSFSDEMNTILDNLAARDFINWLIQTKITD-OH [listing 2 of 2 here]”: the 50% effective concentration (EC50) amounted to 31 nM.

Another assay has as its target T1, Glucagon-like peptide 2 receptor (Homo sapiens). The assay is described as follows: Positive ago-allosteric modulation of GLP2R overexpressed in human SE302 cells assessed as placental alkaline phosphatase activation at 50 uM measured on day 3 by Alamar Blue assay relative to 10 pM GLP2. It counts as cell-based.
As to `O/N=C(\CSc1ccccc1)c1ccccc1`, the %max stood at 4%.
For the molecule `N#Cc1cccc(/C(CSc2ccccc2)=N/O)c1`, the %max is 8%.
Regarding `COc1ccccc1SC/C(=N\O)c1cc(Cl)sc1Cl`, the %max amounted to 78%.
The same measure, in the same setting: to `COc1ccc(SC/C(=N\O)c2cc(Cl)sc2Cl)cc1` belongs 217%; to `Cc1ccc(SC/C(=N\O)c2cc(Cl)sc2Cl)cc1`, 65%.

The next assay shares this target. Kind of assay: Positive ago-allosteric modulation of GLP2R overexpressed in human SE302 cells assessed as GLP2 (3 to 33)-induced placental alkaline phosphatase activation at 10 uM measured on day 3 by Alamar Blue assay relative to GLP2. The format is cell-based.
As for `CC(C)(C)c1cc(/C(CSc2ccccc2)=N/O)cc(C(C)(C)C)c1`, the result was Active.

The target is the same in another assay. The assay is described as follows: Positive ago-allosteric modulation of GLP2R overexpressed in human SE302 cells assessed as placental alkaline phosphatase activation at 25 uM measured on day 3 by Alamar Blue assay relative to 10 pM GLP2. The format is cell-based.
As to `COc1cccc(SC/C(=N\O)c2cc(Cl)sc2Cl)c1`, the %max worked out at 144%.
For `O/N=C(\CSc1ccccc1)c1cccc(Cl)c1`, the %max turned out to be 46%.
Same read-out and setting: to `O/N=C(\CSc1ccccc1)c1cccc(F)c1` belongs 54%; to `COC(=O)c1ccccc1SC/C(=N\O)c1cc(Cl)sc1Cl`, 284%.
Same read-out and setting: to `O/N=C(\CSc1ccccc1)c1cccc(Br)c1` belongs 42%; to `O/N=C(\CSc1ccccc1)c1cccc(C(F)(F)F)c1`, 95%.
Take `O/N=C(\CSc1ccccc1)c1cc(C(F)(F)F)cc(C(F)(F)F)c1`: the %max is 517%.
As to `CC(C)(C)c1cccc(/C(CSc2ccccc2)=N/O)c1`, the %max was determined as 244%.
Consider `O/N=C(\CSc1ccc(F)cc1)c1cc(Cl)sc1Cl`, for which the %max came out at 945%.
Same read-out and setting: to `O/N=C(\CSc1ccc(Cl)cc1)c1cc(Cl)sc1Cl` belongs 293%.

Another assay has the same target. Kind of assay: Positive ago-allosteric modulation of GLP2R overexpressed in human SE302 cells assessed as placental alkaline phosphatase activation at 12.5 uM measured on day 3 by Alamar Blue assay relative to 100 pM GLP2. The format is cell-based.
Consider `COc1c(C(=O)OC(C)(C)C)cc(/C(CSc2ccccc2)=N/O)cc1C(C)(C)C`, for which the %max was found to be 12%.
Same read-out and setting: to `O/N=C(\CSc1ccccc1-c1ccccc1)c1cc(Cl)sc1Cl` belongs 84%; to `O/N=C(\CSc1ccncc1-c1ccccc1)c1cc(Cl)sc1Cl`, 102%; to `Cc1ccc(C)c(SC/C(=N\O)c2cc(Cl)sc2Cl)c1`, 40%.
Take `CCC(C)n1nc(C(F)(F)F)cc1/C(CSc1ccccc1)=N/O` (stereo not given): the %max is 110%.
As to `O/N=C(\CSc1ccccc1C(F)(F)F)c1cc(Cl)sc1Cl`, the %max was 58%.
The same measure, in the same setting: to `CCC(CC)n1nc(C(F)(F)F)cc1/C(CSc1ccccc1)=N/O` belongs 31%; to `O/N=C(\CSc1ccccc1)c1cc(C(F)(F)F)nn1Cc1ccccc1`, 59%; to `CC(C)(C)c1ccccc1SC/C(=N\O)c1cc(Cl)sc1Cl`, 40%.
Still for that read-out and setting: to `COc1c(N(C)C)cc(/C(CSc2ccccc2)=N/O)cc1C(C)(C)C` belongs 43%; to `Cc1ccc(SC/C(=N\O)c2cc(Cl)sc2Cl)c(C)c1`, 58%; to `COc1c(Br)cc(/C(CSc2ccccc2)=N/O)cc1C(C)(C)C`, 43%.
